# Patent EP4818187A1, “COMPOUND AND USE THEREOF” (Ganzhou Hemay Pharmaceutical, Co., Ltd, priority 2023, dated 2025)
# Tests used:
# [1] = system: Fadu (human pharyngeal squamous cell carcinoma); experiment: In vitro inhibitory effect against human tumor cells (MTT); assay type: cell-based; details: 72 h, 3 days
# Description: (§1) Cells were cultured with 5% CO2 at 37°C and saturated humidity until they reached a logarithmic growth phase (usually adherent cells were nearly fully confluent). After removing adherent cells by trypsin/EDTA digestion, the cells were collected for subsequent experiments.
# (§2) The cells were inoculated into a 96-well cell culture plate (hereinafter referred to as the 96-well plate) based on the cell count shown in Table 2, cultured overnight to achieve cell adherence, and then, after different concentrations of the test compound were added, further cultured for a total of 3 days. Finally, the total cell protein in the assay wells was assayed by SRB, or the cell viability was assessed by MTT:
# (§3) 2.2 Assaying cell viability by MTT: the modification is based on the method in the literature (J. Carmichael, W. DeGraff, A. Gazdar et al., Evaluation of a tetrazolium-based semiautomated colorimetric assay: assessment of chemosensitivity testing. Cancer Research. 1987, 47: 936-942). Specific method: For well-adherent cells: the medium was pipetted out, 100 µL of a basal medium containing 0.5 mg/mL MTT (medium free of fetal bovine serum (FBS) and other additives) was added to each well, and culture was continued for additional 3 h. The MTT-containing basal medium was pipetted out, and 100 µL of DMSO was added to each well to dissolve formazan, followed by assay at a wavelength of 490 nm.
# (§4) For poorly-adherent cells: MTT solution was directly added to a concentration of 0.5 mg/mL, culture was continued for additional 3 h, and an equal volume of triple solvent was added to the system to dissolve formazan, followed by assay at a wavelength of 570 nm.
# (§5) 2.3: 1-2 mg of β-glucuronidase was weighed, and dissolved in PBS to prepare 2 mg/mL stock solution. Prior to use, the stock solution was diluted with a complete medium to prepare 12.5 µg/mL enzyme working solution. For assay wells requiring the enzyme, 80 µL of the enzyme working solution was added, with the β-glucuronidase at a concentration of 1 µg/well; and for assay wells not requiring the enzyme, 80 µL of the complete medium was added.
# (§6) 1-3 mg of the test compound was weighed, and dissolved in DMSO to prepare 20 mM stock solution. The stock solution was diluted in a 3-fold gradient with DMSO, then diluted 100-fold with RPMI1640 basal medium to obtain 10× working solutions, with a total of 8 concentrations. 20 µL of the 10× working solutions were add to the assay wells, with the final volume of each well of 200 µL, and with the DMSO at a concentration of 0.1%.
# (§7) 2.4 Calculation of inhibitory activity of compound: the experiment includes a compound test group, a compound-free positive solvent control group (PC), and a negative solvent control group (NC) without cells and the compound. Inhibition rate = [1−(testvalue−NCmean)/(PCmean−NCmean)] × 100% [formula]
# (§8) The mean and SD of the inhibition rate were obtained from replicate assay wells. A curve was plotted with the compound concentrations distributed in a logarithmic form as the abscissa and with the mean inhibition rates as the ordinate, and was fitted with a 4-parameter logistic equation. The compound concentration corresponding to 50% inhibition rate on the curve is the IC50 value. Table 2: Culture medium formulation and cell inoculation concentration for human tumor cell lines
# [2] = system: HCT116 (human colorectal cancer); experiment: as above; assay type: cell-based; details: HCT-116, 72 h, 3 days
# Description: as §1, §2, §3, §4, §5, §6, §7, §8
# [3] = system: NCI-H1975 (human non-small cell lung cancer); experiment: as above; assay type: cell-based; details: NCI-H1975, 72 h, 3 days
# Description: as §1, §2, §3, §4, §5, §6, §7, §8
# [4] = system: NCI-N87 (human gastric cancer cell); experiment: as above; assay type: cell-based; details: NCI-N87, 72 h, 3 days
# Description: as §1, §2, §3, §4, §5, §6, §7, §8
# [5] = system: SK-OV-3 (human ovarian cancer); experiment: as above; assay type: cell-based; details: SK-OV-3, 72 h, SK-OV-3, MTT, 3 days
# Description: as §1, §2, §3, §4, §5, §6, §7, §8
# [6] = system: 22RV1 (human prostate cancer); experiment: In vitro inhibitory effect against human tumor cells (SRB); assay type: cell-based; details: 22Rv1, 72 h, 22RV1, SRB, 3 days
# Description: as §1, §2
# (§9) 2.1 Assaying total cell protein by SRB: the modification is based on the method in the literature (V. Vichai and K. Kirtikara. Sulforhodamine B colorimetric assay for cytotoxicity screening. Nature Protocols. 2006, 1: 1112-1116). Specific method: the culture medium was pipetted out from the wells, the cells were fixed with 10% trichloroacetic acid for more than 1 h, and trichloroacetic acid was removed; the cells were washed with H2O, and stained with 0.4% SRB for 15-30 min; after excess SRB was removed, the cells were washed with 1% acetic acid; 100 µl of 10 mM tris(trihydroxymethylaminomethane) was added to dissolve the protein-bound SRB, followed by assay at a wavelength of 570 nm.
# as §5, §6, §7, §8
# [7] = system: A375 (human malignant melanoma); experiment: as above; assay type: cell-based; details: A-375, 72 h, 3 days
# Description: as §1, §2, §9, §5, §6, §7, §8
# [8] = system: HCC827 (human non-small cell lung cancer); experiment: as above; assay type: cell-based; details: HCC827, 72 h, 3 days
# Description: as §1, §2, §9, §5, §6, §7, §8
# [9] = system: HepG2 (human liver cancer cell); experiment: as above; assay type: cell-based; details: HepG2, 72 h, 3 days
# Description: as §1, §2, §9, §5, §6, §7, §8
# [10] = system: MDA-MB-468 (human triple-negative breast cancer); experiment: as above; assay type: cell-based; details: MDA-MB-468, 72 h, MDA-MB-468, SRB, 3 days
# Description: as §1, §2, §9, §5, §6, §7, §8
# [11] = system: SW620 (human colorectal cancer); experiment: as above; assay type: cell-based; details: SW-620, 72 h, 3 days
# Description: as §1, §2, §9, §5, §6, §7, §8
# [12] = system: BxPC-3 (human pancreatic cancer in situ); experiment: In vitro inhibitory effect against human tumor cells (MTT or SRB); assay type: cell-based; details: BXPC-3, 72 h, BxPC-3, test method printed MTT (head: SRB), 3 days
# Description: as §1, §2, §9, §3, §4, §5, §6, §7, §8
# [13] = system: human ovarian cancer SK-OV-3; experiment: Biological Example 6: in vivo xenograft model of human ovarian cancer SK-OV-3; set-up: species or system Balb/c-nu nude mice; details: SK-OV-3 xenograft, nude mice, 0.8 mg/kg i.v. qw×3
# [14] = system: human non-small cell lung cancer NCI-H1975; experiment: Biological Example 8: in vivo xenograft model of human non-small cell lung cancer NCI-H1975; set-up: species or system Balb/c-nu nude mice; details: nude mice
# [15] = With addition of βGU (1 µg/well)
smiles,measurement,setting,value
CC[C@H](C)[C@@H]([C@@H](CC(=O)N1CCC[C@H]1[C@H](OC)[C@@H](C)C(=O)N[C@H](C)[C@@H](O)c1ccccc1)OC)N(C)C(=O)[C@@H](NC(=O)[C@H](C(C)C)[N+](C)(C)Cc1ccc(O[C@@H]2O[C@H](C(=O)[O-])[C@@H](O)[C@H](O)[C@H]2O)cc1OCc1cn(CCCCCC(=O)Nc2ccc(-c3ccc(/N=N/c4ccc5c(S(=O)(=O)[O-])cc(S(=O)(=O)[O-])c(N)c5c4O)c(C)c3)cc2C)nn1)C(C)C.[Na+].[Na+] [Example compound 4],IC50,[1]; [15],1.7 nM
same,IC50,[1]; βGU-free,21 nM
same,IC50,[2]; [15],6.6 nM
same,IC50,[2]; βGU-free,139 nM
same,IC50,[3]; [15],5.5 nM
same,IC50,[3]; βGU-free,86 nM
same,IC50,[4]; [15],2.3 nM
same,IC50,[4]; βGU-free,58 nM
same,IC50,[5]; [15],5.1 nM
same,IC50,[5]; βGU-free,215 nM
same,IC50,[6]; [15],7 nM
same,IC50,[6]; βGU-free,115 nM
same,IC50,[7]; [15],5 nM
same,IC50,[7]; βGU-free,66 nM
same,IC50,[8]; [15],3.4 nM
same,IC50,[8]; βGU-free,54 nM
same,IC50,[9]; [15],4.7 nM
same,IC50,[9]; βGU-free,72 nM
same,IC50,[10]; [15],0.96 nM
same,IC50,[10]; βGU-free,8.8 nM
same,IC50,[11]; [15],3.4 nM
same,IC50,[11]; βGU-free,67 nM
same,IC50,[12]; [15],1.9 nM
same,IC50,[12]; βGU-free,44 nM
same,Final body weight change (%),[13],4.2%
same,Maximum body weight change (%),[13],"4.8, d17%"
same,Relative volume RTV (x±S.D.),[13],0.79±0.79
same,T/C (%),[13],7.6%
same,Tumor inhibition rate (%),[13],96.0%
same,"Tumor weight (g, x±S.D.)",[13],0.055 ± 0.077 g
same,"Body weight (g, x±S.D.) End",[13]; End,24.2 ± 0.9 g
same,"Body weight (g, x±S.D.) Start",[13]; Start,23.3 ± 0.8 g
same,Final body weight change (%),[14]; 0.8 mg/kg i.v. qw×3,4.9%
same,Maximum body weight change (%),[14]; 0.8 mg/kg i.v. qw×3,"4.9, d24%"
same,Relative volume RTV (x±S.D.),[14]; 0.8 mg/kg i.v. qw×3,0.33±0.17
same,T/C (%),[14]; 0.8 mg/kg i.v. qw×3,2.7%
same,Tumor inhibition rate (%),[14]; 0.8 mg/kg i.v. qw×3,97.3%
same,"Tumor weight (g, x±S.D.)",[14]; 0.8 mg/kg i.v. qw×3,0.072 ± 0.046 g
same,"Body weight (g, x±S.D.) End 24d","[14]; 0.8 mg/kg i.v. qw×3, End 24d",26.0 ± 1.1 g
same,"Body weight (g, x±S.D.) Start","[14]; 0.8 mg/kg i.v. qw×3, Start",24.8 ± 0.8 g
